System: BRCA1 mRNA expression in CAL-120 cells
Assay: qRT-PCR assay: BRCA1 mRNA expression in CAL-120
Format: cell-based
Conditions: Homo sapiens; Inhibition of BRCA1 mRNA expression in CAL-120 cells; median; read-out: RTqPCR-CAL-120, IC50, BRCA1 (median)
Experimental: 3. qRT-PCR Assay: BRCA, ATR, MCL1 in MDA-MB-231, CAL-120
Tissue cultured human MDA-MB-231 human breast cancer cells were plated in 500 microL per well at 200,000 cells/well in a 24 well microtiter plate. After 24 h, the cells were exposed continuously for 24 h to test substances (substances were added with Tecan HP 0300 Dispenser). RNA was prepared using Qiagen RNeasy MiniKit (#74106), RNA was quantified using a NanoDrop Equipment, and 600 nano gamms of RNA was coverted to cDNA using a SuperScript VILO kit (Thermofisher #11755050) followed by qPCR amplification. BRCA1 and ATR gene expression was measured by RT-qPCR and normalised to GAPDH housekeeping gene expression. qPCR primer sets have been purchased from Thermo Fisher Scientific/Applied Biosystems: BRCA1, #Hs 01556193; ATR, #Hs 00992123; GAPDH, #Hs 03929097.

IC50: 7.06 nM
Structure (SMILES): Brc1cnn2c(NCc3nc4ccccc4[nH]3)nc(N3CCOCC3)nc12 [Example 4, N-[(1H-benzimidazol-2-yl)methyl]-8-bromo-2-(morpholin-4-yl)pyrazolo[1,5-a][1,3,5]triazin-4-amine]

Reference: patent publication US20230117034A1, “PYRAZOLOTRIAZINES” (Bayer Aktiengesellschaft, priority 2019, published 2023)
